Columns and labels:
Format in all cases: cell-based
[1] = molecular target: T1, M3 muscarinic receptor (Homo sapiens, UniProt P20309); test: Functional mobilization of intracellular calcium (FLIPR), M3-CHO cells; settings: for M3 Activity: M3-CHO cells, calcium mobilization (FLIPR); for Emax: 100% efficacy = maximum response obtained with the Carbachol control
T1 construct: expressed in transfected cells; host or cells: CHO (M3-CHO)
How it was run: (§1)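 Calcium mobilisation read by FLIPR over 60 s (ex 488/em 540 nm) in recombinant muscarinic CHO lines loaded with calcium dye plus 1 mM probenecid. Compounds tested as agonists alone, or as inhibitors against EC80 carbachol after 15 min pre-incubation or co-addition; 0.5% DMSO; efficacy scaled to carbachol maximal response.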

[2] = molecular target: T2, M1 muscarinic receptor (Homo sapiens, UniProt P11229); test: Functional mobilization of intracellular calcium (FLIPR), M1-CHO cells; settings: for Emax: 100% efficacy = maximum response obtained with the Carbachol control; for M1 Activity: M1-CHO cells, calcium mobilization (FLIPR)
T2 construct: expressed in transfected cells; host or cells: CHO (M1-CHO)
T2 sequence (P11229 1-460): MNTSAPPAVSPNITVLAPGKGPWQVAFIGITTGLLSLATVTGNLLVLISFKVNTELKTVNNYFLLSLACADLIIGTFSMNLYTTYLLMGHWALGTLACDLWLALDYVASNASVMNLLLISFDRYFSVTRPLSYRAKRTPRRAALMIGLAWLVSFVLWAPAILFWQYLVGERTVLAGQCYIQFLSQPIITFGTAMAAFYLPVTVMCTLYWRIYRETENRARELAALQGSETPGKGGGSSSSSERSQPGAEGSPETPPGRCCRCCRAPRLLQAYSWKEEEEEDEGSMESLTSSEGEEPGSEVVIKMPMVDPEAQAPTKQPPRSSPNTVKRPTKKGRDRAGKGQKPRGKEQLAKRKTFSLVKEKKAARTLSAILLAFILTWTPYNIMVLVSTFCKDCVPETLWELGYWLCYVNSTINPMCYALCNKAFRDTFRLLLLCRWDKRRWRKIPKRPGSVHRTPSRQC
How it was run: as §1

[3] = molecular target: T3, M4 muscarinic receptor (Homo sapiens, UniProt P08173); test: Functional mobilization of intracellular calcium (FLIPR), M4-CHO cells; settings: for Emax: 100% efficacy = maximum response obtained with the Carbachol control; for M4 Activity: M4-CHO cells, calcium mobilization (FLIPR)
T3 construct: expressed in transfected cells; host or cells: CHO (M4-CHO)
T3 sequence (P08173 1-479): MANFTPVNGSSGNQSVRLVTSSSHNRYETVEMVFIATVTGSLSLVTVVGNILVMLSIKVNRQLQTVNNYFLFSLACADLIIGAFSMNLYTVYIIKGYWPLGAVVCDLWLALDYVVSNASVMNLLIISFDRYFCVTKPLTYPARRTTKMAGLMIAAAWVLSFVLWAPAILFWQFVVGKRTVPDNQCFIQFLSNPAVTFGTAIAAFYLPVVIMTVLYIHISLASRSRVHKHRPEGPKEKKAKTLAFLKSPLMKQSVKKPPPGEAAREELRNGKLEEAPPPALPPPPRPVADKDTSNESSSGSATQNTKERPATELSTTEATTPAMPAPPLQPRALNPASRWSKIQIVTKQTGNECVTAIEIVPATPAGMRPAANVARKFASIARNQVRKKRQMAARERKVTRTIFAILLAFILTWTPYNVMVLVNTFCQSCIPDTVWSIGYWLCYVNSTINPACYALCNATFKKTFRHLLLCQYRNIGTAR
How it was run: as §1

[4] = molecular target: T4, M2 muscarinic receptor (Homo sapiens, UniProt P08172); test: Functional mobilization of intracellular calcium (FLIPR), M2-CHO cells; settings: for Emax: 100% efficacy = maximum response obtained with the Carbachol control; for M2 Activity: M2-CHO cells, calcium mobilization (FLIPR)
T4 construct: expressed in transfected cells; host or cells: CHO (M2-CHO)
T4 sequence (P08172 1-466): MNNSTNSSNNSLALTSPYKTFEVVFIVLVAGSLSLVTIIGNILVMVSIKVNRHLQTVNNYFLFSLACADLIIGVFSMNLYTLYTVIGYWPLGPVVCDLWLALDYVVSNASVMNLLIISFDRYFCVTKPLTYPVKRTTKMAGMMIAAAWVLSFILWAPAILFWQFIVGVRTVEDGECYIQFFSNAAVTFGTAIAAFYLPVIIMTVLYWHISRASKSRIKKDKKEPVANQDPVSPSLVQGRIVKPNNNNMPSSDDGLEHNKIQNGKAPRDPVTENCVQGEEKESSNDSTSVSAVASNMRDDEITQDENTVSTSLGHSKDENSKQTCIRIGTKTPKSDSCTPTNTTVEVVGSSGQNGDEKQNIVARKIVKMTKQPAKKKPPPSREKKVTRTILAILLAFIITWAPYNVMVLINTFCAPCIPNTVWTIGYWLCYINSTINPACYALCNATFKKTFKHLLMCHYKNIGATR
How it was run: as §1

T1 sequence (P20309 whole entry): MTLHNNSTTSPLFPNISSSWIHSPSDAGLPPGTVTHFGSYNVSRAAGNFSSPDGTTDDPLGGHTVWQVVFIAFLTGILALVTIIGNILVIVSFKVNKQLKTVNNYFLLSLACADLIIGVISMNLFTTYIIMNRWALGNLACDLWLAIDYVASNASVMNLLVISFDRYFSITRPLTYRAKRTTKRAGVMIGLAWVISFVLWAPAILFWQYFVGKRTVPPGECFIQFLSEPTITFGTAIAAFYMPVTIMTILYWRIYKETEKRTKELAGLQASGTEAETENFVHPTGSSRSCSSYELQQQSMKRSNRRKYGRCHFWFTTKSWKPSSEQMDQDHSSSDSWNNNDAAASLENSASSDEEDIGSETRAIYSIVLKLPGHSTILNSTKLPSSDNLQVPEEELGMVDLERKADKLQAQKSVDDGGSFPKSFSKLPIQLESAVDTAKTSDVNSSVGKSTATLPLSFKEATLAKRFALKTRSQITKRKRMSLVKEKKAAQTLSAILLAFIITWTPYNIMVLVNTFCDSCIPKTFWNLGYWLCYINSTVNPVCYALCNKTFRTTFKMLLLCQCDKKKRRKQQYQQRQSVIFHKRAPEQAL

Row | Emax [2] | Emax [3] | Emax [4] | Emax [1] | Structure (SMILES) | M3 Activity [1] | M1 Activity [2] | M4 Activity [3] | M2 Activity [4]
1 | < 25% | 25 to 100% | < 25% | < 25% | COc1ccc(-c2ccc(CC#N)cc2)cc1C1CCN(C2CC3CCC(C3)C2)CC1 (centres unmarked) [Compound 173] | + (activity was measured to be greater than 5.0 μM) | + (activity was measured to be greater than 5.0 μM) | + (activity was measured to be greater than 5.0 μM) | + (activity was measured to be greater than 5.0 μM)
2 | < 25% | < 25% | < 25% | < 25% | COc1ccccc1C1CCN(C2CCC(C3CCCCC3)CC2)CC1 (centres unmarked) [Compound 175] | + (activity was measured to be greater than 5.0 μM) | + (activity was measured to be greater than 5.0 μM) | + (activity was measured to be greater than 5.0 μM) | + (activity was measured to be greater than 5.0 μM)
3 | 25 to 100% | 25 to 100% | 25 to 100% | < 25% | COc1ccc(F)cc1C1CCN(C2CCCCCC2)CC1 [Compound 176] | + (activity was measured to be greater than 5.0 μM) | +++ (activity was measured to be less than 1.0 μM) | +++ (activity was measured to be less than 1.0 μM) | ++ (activity was measured to be from 1.0 μM to 5.0 μM)
4 | 25 to 100% | 25 to 100% | < 25% | < 25% | CCOC(=O)N1CCC(CN2CCC(c3cc(OC)cc(F)c3F)CC2)CC1 [Compound 177] | + (activity was measured to be greater than 5.0 μM) | +++ (activity was measured to be less than 1.0 μM) | +++ (activity was measured to be less than 1.0 μM) | + (activity was measured to be greater than 5.0 μM)
5 | < 25% | 25 to 100% | < 25% | < 25% | COc1ccc(-c2ccccc2Cl)cc1C1CCN([C@H]2C[C@H]3CC[C@H]2C3)CC1 [Compound 178] | + (activity was measured to be greater than 5.0 μM) | + (activity was measured to be greater than 5.0 μM) | + (activity was measured to be greater than 5.0 μM) | + (activity was measured to be greater than 5.0 μM)
6 | 25 to 100% | 25 to 100% | < 25% | < 25% | Cc1ccccc1C1CCN(C2CC3CCC2C3)CC1 (centres unmarked) [Compound 180] | + (activity was measured to be greater than 5.0 μM) | ++ (activity was measured to be from 1.0 μM to 5.0 μM) | +++ (activity was measured to be less than 1.0 μM) | + (activity was measured to be greater than 5.0 μM)
7 | 25 to 100% | 25 to 100% | 25 to 100% | < 25% | COc1ccc(Cl)cc1C1CCN(C2CCCCCC2)CC1 [Compound 181] | + (activity was measured to be greater than 5.0 μM) | ++ (activity was measured to be from 1.0 μM to 5.0 μM) | +++ (activity was measured to be less than 1.0 μM) | ++ (activity was measured to be from 1.0 μM to 5.0 μM)
8 | 25 to 100% | 25 to 100% | < 25% | < 25% | FC(F)(F)Oc1ccccc1C1CCN([C@H]2C[C@H]3CC[C@H]2C3)CC1 [Compound 183] | + (activity was measured to be greater than 5.0 μM) | + (activity was measured to be greater than 5.0 μM) | +++ (activity was measured to be less than 1.0 μM) | + (activity was measured to be greater than 5.0 μM)
9 | < 25% | < 25% | < 25% | < 25% | COc1ccc(-c2ccc(C(=O)NCCCO)cc2)cc1C1CCN(C2CCOCC2)CC1 [Compound 184] | + (activity was measured to be greater than 5.0 μM) | + (activity was measured to be greater than 5.0 μM) | + (activity was measured to be greater than 5.0 μM) | + (activity was measured to be greater than 5.0 μM)
10 | 25 to 100% | 25 to 100% | 25 to 100% | < 25% | COc1ccc(C)cc1C1CCN([C@H]2CC[C@H]3CC[C@H]2C3)CC1 [Compound 185] | + (activity was measured to be greater than 5.0 μM) | ++ (activity was measured to be from 1.0 μM to 5.0 μM) | +++ (activity was measured to be less than 1.0 μM) | + (activity was measured to be greater than 5.0 μM)
11 | 25 to 100% | 25 to 100% | 25 to 100% | < 25% | COc1ccc(Br)cc1C1CCN([C@@H]2C[C@@H]3CC[C@H]2C3)CC1 [Compound 187, 1-((1S,2R,4R)-bicyclo[2.2.1]heptan-2-yl)-4-(5-bromo-2-methoxyphenyl)piperidine] | + (activity was measured to be greater than 5.0 μM) | +++ (activity was measured to be less than 1.0 μM) | +++ (activity was measured to be less than 1.0 μM) | ++ (activity was measured to be from 1.0 μM to 5.0 μM)
12 | 25 to 100% | 25 to 100% | 25 to 100% | < 25% | Cc1ccc(C(=O)COc2ccccc2C2CCN([C@H]3C[C@H]4CC[C@H]3C4)CC2)cc1 [Compound 188] | + (activity was measured to be greater than 5.0 μM) | + (activity was measured to be greater than 5.0 μM) | ++ (activity was measured to be from 1.0 μM to 5.0 μM) | + (activity was measured to be greater than 5.0 μM)

Row | Structure (SMILES) | Emax [2] | Emax [3] | Emax [4] | Emax [1] | M3 Activity [1] | M1 Activity [2] | M4 Activity [3] | M2 Activity [4]
13 | Cc1ccccc1C1(O)CCN(CC2CC3C=CC2C3)CC1 (centres unmarked) [Compound 171] | 25 to 100% | 25 to 100% | < 25% | – | + (activity was measured to be greater than 5.0 μM) | ++ (activity was measured to be from 1.0 μM to 5.0 μM) | +++ (activity was measured to be less than 1.0 μM) | + (activity was measured to be greater than 5.0 μM)
14 | COc1ccc(Cl)c(C2CCN(C3C[C@H]4CC[C@H]3C4)CC2)c1 (some centres unmarked) [Compound 174] | < 25% | < 25% | < 25% | < 25% | + (activity was measured to be greater than 5.0 μM) | + (activity was measured to be greater than 5.0 μM) | + (activity was measured to be greater than 5.0 μM) | + (activity was measured to be greater than 5.0 μM)
15 | CCOC(=O)N1C2CCC1CC(N1CCC(c3ccc(F)cc3OC)CC1)C2 (centres unmarked) [Compound 179] | 25 to 100% | 25 to 100% | < 25% | < 25% | + (activity was measured to be greater than 5.0 μM) | +++ (activity was measured to be less than 1.0 μM) | +++ (activity was measured to be less than 1.0 μM) | + (activity was measured to be greater than 5.0 μM)
